# Data published in patent publication US20230355599A1, “BIOMARKERS FOR CBL, AND COMPOSITIONS AND METHODS FOR THEIR USE” (NURIX THERAPEUTICS, INC., priority 2022, published 2023).
# Tested on: phosphorylated PLCγ2
# Assay: Phosphorylated PLCγ2 in circulating CD8+ T cells after oral dosing of cynomolgus monkeys (flow cytometry, ex vivo anti-CD3/CD28 stimulation)
# Procedure: To assess these proximal biomarkers of Cbl-b inhibition on CD8^+ T cells, pharmacodynamic analysis was performed in conjunction with a pharmacokinetic study conducted at Charles River Laboratories. Circulating blood was obtained from cynomolgus monkeys treated with 0.3, 1, 3 or 10 mg/kg of Compound 23 after a single dose and after 3 doses. The response to Cbl-b inhibition on proximal biomarkers (pHS1, pPLCγ2, and pZAP70) was measured in CD8^+ T cells using flow cytometry. This technique is highly quantitative and can measure multiple phosphorylation markers in different cell populations within the same sample.
# Compound 23 was formulated in vehicle (0.2% Tween 80 in DI water+1 eq HCL) and aliquoted into individual (not serially diluted) dosing solutions of 0.3, 1, 3 and 10 mg/mL by stirring for 5-10 min, vortexing, and sonicating again as necessary to produce an even suspension that was stirred constantly at 4° C. to achieve and maintain a homogenous suspension. To prepare vehicle, 0.2% Tween 80 in deionized (DI) water, water was measured into a beaker with continuous stirring. Tween 80 was added sequentially, and stirring continued until the solution dissolved; the solution was stored at 2-8° C.
# For pharmacodynamic analysis, whole blood was obtained from cynomolgus monkeys and used for flow cytometry assays to evaluate phosphorylated biomarkers, pHS1, pPLCγ2, and pZAP70, in circulating CD8^+ T cells.
# On the day of dosing, blood samples were collected via femoral venipuncture in accordance with test facility standard operating procedures. 1 mL/tube of whole blood was collected pre-dose (time 0) and at 0.5, 1, 2, 4, 6, and 24 hours post-dose and added into 2 types of TruCulture tubes (Myriad) for pharmacodynamic analysis. One tube contained media alone and is denoted as “Null”, and the second tube contained 2 μg/mL anti-CD3 and anti-CD28, which were prepared at Nurix prior to the study using cynomolgus specific anti-CD3 (BD Biosciences; SP34-2) and anti-CD28 (Bio X cell; CD28.2) and denoted as “CD3/CD28”. Tubes were shipped by overnight courier on cold pack the day of collection and analyzed for phosphorylated biomarkers of Cbl-b inhibition by flow cytometry.
# Following PD collection, upon receipt of TruCulture tubes, each tube was inverted 5-6 times to ensure a mixed suspension of blood. 30 μg of goat anti-mouse IgG (H+L) antibody (Invitrogen) was added to cross-link the stimulation antibodies and induce synchronized cellular stimulation. Cells were stimulated for 60 minutes alongside non-stimulated controls for each time point.
# All buffers (Phosflow Lyse/Fix Buffer 5×, Phosflow Perm Buffer I; BD Biosciences) were prepared according to the manufacturer's instructions. […]
structure (smiles),measurement,setting,value
C[C@H]1CCCN(Cc2cc3c(c(C(F)(F)F)c2)CN(c2cccc([C@]4(c5nncn5C)C[C@@H](C)C4)c2)C3=O)C1 [Compound 23],phosphorylated PLCγ2 in comparison to baseline,"multiple doses of 10 mg/kg, 3 days of daily oral dosing",significant increases
same,time of peak increase of phosphorylated PLCγ2,"multiple doses of 10 mg/kg, 4 hours post dose",76 h
same,"time of maximal signal, phosphorylated PLCγ2",single dose oral 10 mg/kg,2 hours post dose
same,phosphorylated PLCγ2 in comparison to baseline,"single dose oral 10 mg/kg, circulating CD8+ T cells, anti-CD3/CD28 stimulated",significant increases
